Assay results from patent publication EP4768479A1 (Hubei Bio-Pharmaceutical Industrial Technological Institute …, priority 2023, dated 2025).

Assays:
AT2R = molecular target: T1, AT2R (Homo sapiens, UniProt P50052); assay: Binding assay of compounds to AT2R (Tag-lite HTRF ligand binding kit)
T1 construct: purchased Cisbio #C1TT1AT2
T1 sequence (P50052 1-363): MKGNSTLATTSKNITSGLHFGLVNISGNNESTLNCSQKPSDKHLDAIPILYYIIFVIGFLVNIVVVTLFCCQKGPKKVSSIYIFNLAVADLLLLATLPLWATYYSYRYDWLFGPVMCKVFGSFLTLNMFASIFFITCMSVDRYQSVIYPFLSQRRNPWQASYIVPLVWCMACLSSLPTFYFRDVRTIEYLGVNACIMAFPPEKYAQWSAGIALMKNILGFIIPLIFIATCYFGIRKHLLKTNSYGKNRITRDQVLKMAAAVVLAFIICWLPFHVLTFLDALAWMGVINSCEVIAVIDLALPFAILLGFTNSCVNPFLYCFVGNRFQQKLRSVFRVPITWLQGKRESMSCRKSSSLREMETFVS
Description: The assay was performed in accordance with the manufacturer instructions of Angiotensin AT2 Receptor Ligand Binding Assay Kit (#C1TT1AT2, Cisbio). First, a 10 mM compound stock solution was diluted in a gradient at a 5× dilution ratio (including 10 concentrations, each with two replicates). 160 nL of compounds at different concentrations was added to a 384-well plate. 40 µL of 1× TLB (TLB: Tag-lite buffer) was added to each well, and the mixture was shaken at room temperature for 15 minutes. A 15 mL centrifuge tube added with 5 mL of 1×TLB was prepared in advance. The frozen labeled cells were thawed in a water bath at 37°C (for 1 to 2 minutes), and the thawed cells were quickly transferred to the above 15 mL centrifuge tube. The mixture was mixed well and centrifuged at 1,000 g at room temperature for 5 minutes. The supernatant was removed, and the cells were resuspended by adding 2.7 mL 1× TLB. A new 384-well plate was taken, and 10 µL of mixed cells were added into the corresponding wells according to the assay design. 5 µL of 4× compound solution and 5 µL of 4× Tag-lite red fluorescent labeled ligand were added to each well. After incubation at room temperature for 1 hour, data were read using EnVision with an HTRF mode. The […] at 665nM and 615nM in each well were read respectively, and the ratio was calculated (Ratio=A665nM/B615nM). The IC50 value was calculated by means of GraphPad Prism8 software, where X represents logarithmic value of compound concentration; and Y represents ratio of A665nM/B615nM.

[1] = Liver microsomal stability assay; assay type: in vitro ADME; conditions: human liver microsomes, NADPH, 37°C; read-out: T1/2 (min) Human
Description: The human liver microsome stability assay was performed by co-incubating the compound with human liver microsomes in vitro. The test compounds were first prepared as 10 mM stock solutions in DMSO solvent, and then diluted to 0.5 mM with acetonitrile. Human liver microsomes (Corning) were diluted with PBS to prepare a microsome/buffer solution, and this solution was used to dilute 0.5 mM of the compound to prepare a working solution. In the working solution, a concentration of the compound was 1.5 µM and a concentration of the human liver microsome was 0.75 mg/mL. A deep-well plate was taken, 30 µL of working solution was added to each well of the plate, and then 15 µL of pre-heated NADPH solution (6 mM) was added to start the reaction. The mixture was incubated at 37°C. 135 µL of acetonitrile was added to the corresponding wells to stop the reaction at 0 minute, 5 minutes, 15 minutes, 30 minutes, and 45 minutes of incubation. Subsequent to the stop of the reaction by means of acetonitrile at the last time point of 45 minutes, the plate was vortexed for 10 minutes (600 rpm/min) and then centrifuged for 15 minutes. After the centrifugation, the supernatant was taken, and purified water was added in a 1:1 ratio for LC-MS/MS detection. The ratio of a peak area of the compound to a peak area of the internal standard at individual time points was obtained. The peak area ratios of the compound at 5 minutes, 15 minutes, 30 minutes, and 45 minutes were compared with the peak area ratio at 0 minute, and the remaining percentage of the compound at each time point was calculated. T1/2 was calculated using Graphpad8 software. [Table 3] Liver Microsomal Stability of Compounds

[2] = Bidirectional permeability study in Caco-2 cells; assay type: in vitro ADME; conditions: human, pH 7.4, Caco-2, 2.00 µM, A to B
Description: Caco-2 cells were inoculated onto […] (PET) in 96-well inserted plates at a rate of 1×10^5 cells/cm^2, and the medium was changed every 4 to 5 days until day 21 to 28, to form a fused cell monolayer. The transport buffer in the assay was HBSS and 10.0 mM HEPES, with a pH of 7.40±0.05. The test compounds were subjected to a bidirectional test at 2.00 µM in the presence and absence of GF120918 (10.0 µM). Digoxin was subjected to a bidirectional test at 10.0 µM in the presence and absence of GF120918 (10.0 µM), while Nadolol and Metoprolol were subjected to a test from direction A to direction B at 2.00 µM in the absence of GF120918 (10.0 µM). The above tests were performed in duplicate. The final concentration of DMSO was adjusted to be lower than 1%. The plate was incubated in a CO2 incubator at 37°C±1°C for 2 hours, and 5% CO2 was added under saturated humidity without shaking. All the samples, after being mixed with acetonitrile containing internal standard, were centrifuged at 3,200 g for 10 minutes. For Nadolol and Metoprolol, 200 µL of supernatant was diluted with 600 µL of distilled water for LC-MS/MS analysis. For Digoxin and test compounds, 200 µL of supernatant was diluted with 200 µL of distilled water for LC-MS/MS analysis. The concentrations of the test compounds and control compounds in the starting solution, the donor solution, and the acceptor solution were quantified by LC-MS/MS based on a peak area ratio of the analyte to the internal standard.
After the transport assay, the integrity of the Caco-2 cell monolayer was determined using Lucifer Yellow Exclusion Assay. [Table 4] Bidirectional Permeability of Compounds in Caco-2 Cells

Structure (SMILES) | IC50 (AT2R) | half-life at 1 µM [1] | Papp A→B at 2 h, 2 µM [2]
Cc1c(CC(C)C)sc(S(=O)(=O)Nc2ncccn2)c1-c1ccc(Cn2ccnc2Cl)cc1 [Compound I-23, 3-(4-((2-chloro-1H-imidazol-1-yl)methyl)phenyl)-5-isobutyl-4-methyl-N-(pyrimidin-2-yl)thiophene-2-sulfonamide] | 1.79 nM | 39.3 min | 52.2 nm/s
Cc1c(CC(C)C)sc(S(=O)(=O)NC(=O)OCCO)c1-c1ccc(Cn2ccnc2C(F)(F)F)cc1 [Compound I-13, 2-hydroxyethyl ((5-isobutyl-4-methyl-3-(4-((2-(trifluoromethyl)-1H-imidazol-1-yl)methyl)phenyl)thiophen-2-yl)sulfonyl)carbamate] | 2.6 nM | 46.4 min | 19.8 nm/s
Cc1c(CC(C)C)sc(S(=O)(=O)NC(=O)OCC(C)(C)O)c1-c1ccc(Cn2ccnc2C(F)(F)F)cc1 [Compound I-10, 2-hydroxy-2-methylpropyl ((5-isobutyl-4-methyl-3-(4-((2-(trifluoromethyl)-1H-imidazol-1-yl)methyl)phenyl)thiophen-2-yl)sulfonyl)carbamate] | 2.31 nM | 83.2 min | 26.3 nm/s
COC(=O)NS(=O)(=O)c1sc(CC(C)C)c(C)c1-c1ccc(Cn2ccnc2C(C)(C)O)cc1 [Compound I-19, Methyl ((3-(4-((2-(2-hydroxypropan-2-yl)-1H-imidazol-1-yl)methyl)phenyl)-5-isobutyl-4-methylthiophen-2-yl)sulfonyl)carbamate] | 2.91 nM | 71.2 min | 32.4 nm/s
COC(=O)NS(=O)(=O)c1sc(CC(C)C)c(C)c1-c1ccc(Cn2ccnc2C(F)(F)F)cc1 [Compound I-9, Methyl ((5-isobutyl-4-methyl-3-(4-((2-(trifluoromethyl)-1H-imidazol-1-yl)methyl)phenyl)thiophen-2-yl)sulfonyl)carbamate] | 5.13 nM | 50.2 min | 22.9 nm/s
COC(=O)NS(=O)(=O)c1sc(CC(C)C)c(C)c1-c1ccc(Cn2ccnc2Cl)c(F)c1 [Compound I-14, Methyl ((3-(4-((2-chloro-1H-imidazol-1-yl)methyl)-3-fluorophenyl)-5-isobutyl-4-methylthiophen-2-yl)sulfonyl)carbamate] | 1.39 nM | 45 min | 37.3 nm/s
CCCCOC(=O)NS(=O)(=O)c1sc(CC(C)C)cc1-c1ccc(Cn2ccnc2)cc1 [Control Compound I, reference compound] |  | 9.13 min | 3.81 nm/s
